Like-named read-outs stand apart in the source and are kept apart here. Blank lines part the entries; values can stand above or below the molecule they belong to.
Tests used:
hH3R = settings: cited from earlier work
AChE = test system: AChE; set-up: method as in PMID 28861918; settings: cited from earlier work
BuChE = test system: BuChE; set-up: method as in PMID 28861918; settings: cited from earlier work
[1] = toxicity in HEK-293 cells (EZ4U); type: cell-based, human; settings: human, HEK-293 cells; reference doxorubicin at 0.2 and 0.05 µM; 48 h incubation; read-out: HEK-293 cell viability
Experimental: (§1) The used reference cytostatic drug doxorubicin (DX) decreased cell viability <50% under the same conditions at very low concentrations of 0.2 and 0.05 µM. […] Oxidative damage was induced by very high toxic levels of hydrogen peroxide (H2O2; 300 µM), the popular cell model for PD research, in neuroblastoma SH-SY5Y cell line. […] Salsolinol (SAL) was used at a concentration of 50 µM as the reference compound with the proven neuroprotection activity.
The HEK-293 cells were seeded at a concentration of 1.5 × 10^4 cells/well in 200 μL culture medium and incubated for 24 h at 37 °C and 5% CO2. […] Then, 25 μL EZ4U labelling mixture (Biomedica, Vienna, Austria) was added and the cells were incubated for 2 h. The spectrophotometric absorbance of the samples was measured using a microplate reader (EnSpire, PerkinElmer, Waltham, MA, USA) at 492 nm. All measurements were performed in triplicate, and results are shown as mean ± SD.

[2] = test system: neuroblastoma SH-SY5Y cells; test: neuroprotection in H2O2-treated SH-SY5Y cells (MTS); type: cell-based; settings: 50 µM; H2O2 300 µM; 24 h
Experimental: as §1
SH-SY5Y cells were seeded in microplate at a concentration of 2.5 × 10^4 cells/well in 100 μL culture medium and cultured for 24 h at 37 C and 5% CO2 to reach 70% confluence. […] (R,S)-salsolinol (purity ≥ 99%) was obtained from Cayman Chemical (Ann Arbor, MI, USA). Next, H2O2 was added at final concentration 300 μM and the cells were placed into the incubator. After 24 h of compounds co-incubation with H2O2, the CellTiter 96®AQueous Non-Radioactive Cell Proliferation Assay (MTS) labeling mixture was added to each well, and the microplates were incubated under the same conditions for 5 h. The absorbance was measured using a microplate reader EnSpire (PerkinElmer, Waltham, MA USA) at 490 nm. All measurements were performed in triplicate, and results are shown as mean ± SD.

hMAO B [3] = target: T1, hMAO B (Homo sapiens, UniProt P27338); test: hMAO B inhibition, fluorometric Amplex Red MAO assay; type: biochemical
T1 construct: purchased Sigma Aldrich M7441
T1 sequence (P27338 1-520): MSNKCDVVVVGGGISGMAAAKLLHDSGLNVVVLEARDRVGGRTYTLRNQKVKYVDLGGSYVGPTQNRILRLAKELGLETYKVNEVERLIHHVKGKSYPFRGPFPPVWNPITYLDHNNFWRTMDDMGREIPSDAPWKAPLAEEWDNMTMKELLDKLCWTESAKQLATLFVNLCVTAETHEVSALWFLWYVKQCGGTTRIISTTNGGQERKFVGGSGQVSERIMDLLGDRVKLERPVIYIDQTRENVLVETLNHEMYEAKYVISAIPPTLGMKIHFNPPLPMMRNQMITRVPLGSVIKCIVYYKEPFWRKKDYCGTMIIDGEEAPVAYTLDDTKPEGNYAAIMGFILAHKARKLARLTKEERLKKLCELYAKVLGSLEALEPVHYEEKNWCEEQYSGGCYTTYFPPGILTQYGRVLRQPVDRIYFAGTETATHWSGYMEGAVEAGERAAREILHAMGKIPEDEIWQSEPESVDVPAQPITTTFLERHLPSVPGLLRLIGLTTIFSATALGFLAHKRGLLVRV

human MAO A = target: T2, human MAO A (Homo sapiens, UniProt P21397); test: hMAO A inhibition, fluorometric Amplex Red MAO assay; type: biochemical; settings: mean ± SEM; p-tyramine 200 μM
T2 construct: purchased Sigma Aldrich M7316
T2 sequence (P21397 1-527): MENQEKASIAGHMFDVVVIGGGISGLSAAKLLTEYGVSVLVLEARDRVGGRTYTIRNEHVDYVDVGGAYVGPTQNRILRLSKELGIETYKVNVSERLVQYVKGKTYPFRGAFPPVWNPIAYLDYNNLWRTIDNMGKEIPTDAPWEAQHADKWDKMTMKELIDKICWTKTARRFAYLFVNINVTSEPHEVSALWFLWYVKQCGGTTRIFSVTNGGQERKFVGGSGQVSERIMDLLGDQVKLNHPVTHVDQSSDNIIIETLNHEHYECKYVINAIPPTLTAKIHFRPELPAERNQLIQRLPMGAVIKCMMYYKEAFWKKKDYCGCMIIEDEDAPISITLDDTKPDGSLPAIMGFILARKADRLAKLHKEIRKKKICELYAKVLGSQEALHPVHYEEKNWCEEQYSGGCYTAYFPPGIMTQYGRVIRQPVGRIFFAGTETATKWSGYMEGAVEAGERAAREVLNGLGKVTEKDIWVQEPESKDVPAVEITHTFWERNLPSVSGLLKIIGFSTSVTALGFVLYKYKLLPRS
Experimental: Inhibitory potency of compounds on MAO isoenzymes were carried out by a fluorometric method with a commercial Amplex™ Red Monoamine Oxidase Assay Kit (ThermoFisher Scientific A12214, Waltham, MA, USA) as described previously. For all tests, recombinant human MAO B and MAO A (from Sigma AldrichM7441 and M7316, Darmstadt, Germany) were used. Inhibitors’ activity was measured in the presence of p-tyramine (200 μM).
[…] […] All calculations were made in Microsoft Excel and GraphPadPrism software. All experiments were performed in duplicate, and data are expressed as mean ± SEM of 2–5 independent experiments.

hMAO B [4] = target: T1, hMAO B; test: hMAO B reversibility studies; type: biochemical; settings: inhibitor at IC80
Experimental: Reversibility of MAO B inhibitors was tested as described previously with slight modification. Two experiments were performed simultaneously. In the first experiment, inhibitors (in concentrations corresponding to their IC80 values) were incubated with the enzyme and p-tyramine (10 μM) for 22 min (measuring fluorescence every two minutes).

hMAO B [5] = target: T1, hMAO B; test: hMAO B kinetic studies (Michaelis-Menten, Lineweaver-Burk); type: biochemical
Experimental: Results from the kinetic experiment were used for determination of Michaelis–Menten curves (Figure 4A,C). […] From Michaelis–Menten curves, Vmax and KM values were fitted (Table 2). For both compounds, Vmax values decreased curvilinearly and KM values increased curvilinearly with the increased inhibitor concentrations.
The mode of the inhibition was tested according to the standard procedure described in Reversibility Studies using different concentrations of the substrate. […] Substrate was used in six concentrations: […], 0.1 mM, 0.5 mM, 1 mM, 1.5 mM, and 2 mM. After the experiment, velocities were calculated and put on the graph (y-axis) against the concentration of the substrate (x-axis). From the Michaelis–Menten plot Vmax, KM, and α values were calculated for different concentrations of the inhibitor. Double-reciprocal plot (Lineweaver–Burk plot) were prepared to display the data.
The α values for different modes of reversible inhibition as well as their diagnostic signature on […]
The α value for compound 9 was calculated by GraphPad Prism software from the nonlinear regression curves using following equation for mixed- […]
v = Vmax*[S] / [S]*(1+ [I]/ αKi) + KM*(1+ [I]/Ki) (1) v – velocity of enzyme reaction. Vmax - maximum velocity (at infinite substrate concentration); Ki – dissociation constant for Enzyme-Inhibitor complex (in the enzymology literature other symbols can be used such as: Ki, Kii , KEI etc.); αKi – dissociation constant for Enzyme-Substrate-Inhibitor complex (in the literature also under the symbols: Ki’, Kis and KES); KM – Michaelis-Menten constant; [I]– concentration of the inhibitor; [S] – concentration of the substrate [Ref S1].
Table S1. Relation between inhibition modality, α value, and diagnostic signature on the double-reciprocal plots (i.e Lineweaver-Burk plot) [S2].
α Inhibition modality Diagnostic signature on […]
α = 1 (inhibitor binds to free enzyme lines converge at the x-axis and enzyme-substrate complex
(inhibitor can bind to free lines converge to the left of the α > 1 enzyme and enzyme-substrate y-axis and above the x-axis complex unequally), inhibitor’s affinity is higher for free enzyme
(inhibitor can bind to free
α < 1 enzyme and enzyme-substrate lines converge to the left of the complex unequally), inhibitor’s y-axis and below the x-axis affinity is higher for the enzyme- […]
α → ∞ (inhibitor and substrate compete lines converge at the y-axis for the same site of binding) […]
α → 0 and α > 0 (inhibitor binds only to the parallel lines

[6] = target: T3, human histamine H3 receptor (hH3R) (Homo sapiens, UniProt Q9Y5N1); test: radioligand displacement binding assay, [3H]Nα-methylhistamine, HEK293 cells stably expressing hH3R; settings: HEK293 cells stably expressing human H3R, mean (95% CI)
T3 construct: expressed in transfected cells
T3 sequence (Q9Y5N1 whole entry): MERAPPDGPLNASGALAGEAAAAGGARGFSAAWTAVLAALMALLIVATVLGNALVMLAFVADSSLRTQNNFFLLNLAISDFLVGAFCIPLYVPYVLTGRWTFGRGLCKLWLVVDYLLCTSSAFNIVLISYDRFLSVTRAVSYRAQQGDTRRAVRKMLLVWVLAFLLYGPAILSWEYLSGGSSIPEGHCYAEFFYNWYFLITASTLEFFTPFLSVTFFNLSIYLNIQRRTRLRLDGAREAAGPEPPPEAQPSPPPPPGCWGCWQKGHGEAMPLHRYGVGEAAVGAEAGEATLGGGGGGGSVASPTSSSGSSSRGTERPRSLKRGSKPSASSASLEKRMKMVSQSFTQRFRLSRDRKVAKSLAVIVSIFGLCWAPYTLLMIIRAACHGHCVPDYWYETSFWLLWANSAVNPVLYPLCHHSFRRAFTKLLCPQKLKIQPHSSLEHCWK
Experimental: [^3H]N^α-methylhistamine was used as a radioligand.
The radioligand displacement binding assay was carried out in HEK-293 cells stably expressing the recombinant hH3R as described by Kottke et al. with slight modifications. […] Obtained data from at least three experiments (in at least duplicates) were analyzed with GraphPad Prism 6.1 (San Diego, CA, USA) using nonlinear regression (one-site competition on logarithmic scale), and Ki values were transformed from IC50 according to Cheng-Prusoff. Statistical analysis was performed on −log Ki values.

[7] = concentration used in kinetic studies

Compound: CCC(C)(C)c1ccc(OCCCN2CCCC2)cc1 [Compound 3]
- Ki (hH3R; read-out: hH3R Ki): 63 nM

Compound: C#CCNC1CCc2cc(OCCCN3CCCCC3)ccc21 (stereo not drawn) [Compound 1]
- Ki (hH3R; read-out: hH3R Ki): 6.7 nM

Compound: C#CCN(C)Cc1cc2cc(OCCCN3CCCCC3)ccc2n1C [Contilisant]
- IC50 (AChE): 530 nM
- IC50 (BuChE): 1690 nM
- Ki (hH3R; read-out: H3R Ki): 11 nM

Compound: O=C1/C(=C/c2ccc(OCCCN3CCCCC3)cc2)Cc2cc(OCc3ccc(Br)cc3)ccc21 [Compound 2]
- Ki (hH3R; read-out: hH3R Ki): 6.5 nM

Compound: COc1cccc2c1C(=O)c1c(O)c3c(c(O)c1C2=O)C[C@@](O)(C(=O)CO)C[C@@H]3O[C@H]1C[C@H](N)[C@H](O)[C@H](C)O1 [doxorubicin (DX), doxorubicin, reference compound]
- viability at 48 h [1]: < 50%

Compound: CC1NCCc2cc(O)c(O)cc21 (racemic) [SAL, (R,S)-salsolinol, reference compound]
- cell survival of H2O2-damaged SH-SY5Y cells (neuroprotection) [2]: statistically significant increased cells viability

- IC20 (hMAO B [3]; [7]): 0.2 nM
- IC80 (hMAO B [3]; [7]): 40 nM
- IC50 (hMAO B [3]; mean ± SEM of 2-5 independent experiments, p-tyramine 200 μM): 11 ± 1 nM
- IC50 (human MAO A): > 10000 nM
- melting point: 114 to 116 °C
- type of hMAO B inhibition (reversible or irreversible) (hMAO B [4]; without preincubation, compared with safinamide and rasagiline): reversible
- constant α (hMAO B [5]; calculated by GraphPad Prism from nonlinear regression, mixed-model inhibition): 1.6
- mode of hMAO B inhibition (hMAO B [5]; from Vmax and KM behaviour and Lineweaver-Burk plot): mixed mode inhibition
- Vmax (RFU/min) (hMAO B [5]; inhibitor concentration 0.2 nM): 1652 RFU/min
- Vmax (RFU/min) (hMAO B [5]; inhibitor concentration 10 nM): 1544 RFU/min
- Vmax (RFU/min) (hMAO B [5]; inhibitor concentration 40 nM): 1238 RFU/min
- Ki [6]: 69 nM
Compound: CC1CCCCN1CCCOc1ccc(C(C)(C)C)cc1.O=C(O)C(=O)O (stereo not drawn) [Compound 9, 1-(3-(4-tert-Butylphenoxy)propyl)-2-methylpiperidine hydrogen oxalate]
- effect of 30 min preincubation with enzyme on hMAO B inhibition (hMAO B [4]; with vs without preincubation): did not show differences between experiments with and without the preincubation

— publication PMC7279487, “Dual Target Ligands with 4-tert-Butylphenoxy Scaffold as Histamine H3 Receptor Antagonists and Monoamine Oxidase B Inhibitors” (International Journal of Molecular Sciences, 2020)
